Reference: patent US20100216779A1 (GLAXOSMITHKLINE LLC, priority 2007, published 2010)

Columns and labels:
[1] = target: T1, human IGF-1R (NIH-3T3 cells over expressing human IGF-1R) (Homo sapiens, UniProt P08069); assay: IGF-1R cellular autophosphorylation (DELFIA); type: cell-based; conditions: IGF-1 stimulated
T1 construct: expressed in transfected cells; host or cells: NIH-3T3 (mouse fibroblasts)
In short: (§1)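 Autophosphorylation of IGF-1R or IR is measured in NIH-3T3 lines overexpressing each human receptor after 2 h compound pretreatment and a 15 min ligand challenge (IGF-1 30 ng/mL; insulin 3 ug/mL). Fluorescence is normalised to 100% stimulation.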

[2] = target: T2, IR (NIH-3T3 cells over expressing human IGF-1R or IR) (Homo sapiens, UniProt P06213); assay: IR cellular autophosphorylation (DELFIA); type: cell-based; conditions: NIH-3T3 cells over expressing IR, insulin stimulated
T2 construct: expressed in transfected cells; host or cells: NIH-3T3 (mouse fibroblasts)
T2 sequence (P06213 28-1382): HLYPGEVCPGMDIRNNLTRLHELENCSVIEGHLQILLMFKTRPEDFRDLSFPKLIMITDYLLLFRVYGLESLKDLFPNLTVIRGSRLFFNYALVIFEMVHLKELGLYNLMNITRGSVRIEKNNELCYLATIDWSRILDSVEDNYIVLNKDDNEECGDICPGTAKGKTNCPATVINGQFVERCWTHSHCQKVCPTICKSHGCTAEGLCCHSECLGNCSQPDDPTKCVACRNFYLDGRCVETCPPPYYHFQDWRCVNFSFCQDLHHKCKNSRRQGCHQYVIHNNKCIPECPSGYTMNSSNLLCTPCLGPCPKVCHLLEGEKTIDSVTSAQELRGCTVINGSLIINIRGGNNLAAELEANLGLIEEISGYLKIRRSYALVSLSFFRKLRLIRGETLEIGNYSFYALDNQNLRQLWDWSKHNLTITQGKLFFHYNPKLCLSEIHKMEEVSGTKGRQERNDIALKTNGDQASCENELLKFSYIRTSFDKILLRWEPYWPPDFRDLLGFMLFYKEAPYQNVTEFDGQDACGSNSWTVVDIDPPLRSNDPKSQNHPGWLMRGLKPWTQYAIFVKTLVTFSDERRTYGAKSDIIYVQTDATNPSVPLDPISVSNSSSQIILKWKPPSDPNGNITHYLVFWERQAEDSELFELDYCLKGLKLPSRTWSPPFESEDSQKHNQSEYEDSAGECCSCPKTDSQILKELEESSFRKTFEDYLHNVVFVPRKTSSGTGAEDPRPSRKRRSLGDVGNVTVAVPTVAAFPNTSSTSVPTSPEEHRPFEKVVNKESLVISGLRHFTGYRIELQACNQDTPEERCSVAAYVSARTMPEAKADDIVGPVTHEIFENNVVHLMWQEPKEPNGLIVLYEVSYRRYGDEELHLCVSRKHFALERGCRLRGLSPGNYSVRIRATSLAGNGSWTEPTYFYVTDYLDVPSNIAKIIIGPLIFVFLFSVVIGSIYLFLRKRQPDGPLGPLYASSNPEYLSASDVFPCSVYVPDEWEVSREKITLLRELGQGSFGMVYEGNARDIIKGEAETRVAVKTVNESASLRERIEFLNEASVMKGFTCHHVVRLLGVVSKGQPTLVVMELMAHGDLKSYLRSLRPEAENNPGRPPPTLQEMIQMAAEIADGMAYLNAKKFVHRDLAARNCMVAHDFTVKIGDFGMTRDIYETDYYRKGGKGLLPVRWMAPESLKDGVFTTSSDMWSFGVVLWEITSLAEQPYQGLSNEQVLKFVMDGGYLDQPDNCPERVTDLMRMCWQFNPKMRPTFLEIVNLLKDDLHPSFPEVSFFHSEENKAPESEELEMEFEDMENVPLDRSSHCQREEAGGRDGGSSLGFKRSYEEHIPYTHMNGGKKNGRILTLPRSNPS
In short: as §1

[3] = system: LISN cell (mouse 3T3 fibroblasts transduced with human IGF-1R) tumors; assay: In vivo efficacy, mice bearing LISN cell tumors; conditions: for tumor growth inhibition at day 21: LISN (start approx. 362 mm^3)
Procedure: E. In Vivo Efficacy—Mouse Models
The efficacy of the compounds of Examples 57 and 58 were assessed together in an in vivo efficacy experiment performed on mice bearing LISN cell (mouse 3T3 fibroblasts transduced with human IGF-1R) tumors. Fifty six female nude mice bearing subcutaneous LISN cell tumors were measured for tumor size and body weight and block randomized into seven groups of eight mice with an equal average tumor volume of approximately 200 mm3. Mice were dosed with either vehicle (20% SBE pH3.5), Example 57 or Example 58. The dosing schedules for each compound were based on previous experiments with the compounds and doses chosen to give the highest tumor growth inhibition and a dose response. Example 58 was dosed at 30, 100 and 300 mg/kg QD for 21 days while Example 57 was dosed at 30 mg/kg QD for 21 days, 15 mg/kg BID for 21 days and 30 mg/kg QDx3 days/week for 3 weeks.
The tumors on mice being treated with vehicle grew with the expected exponential growth throughout the 21 day study. […] The lower dose of 30 mg/kg of Example 58 achieved 28% tumor growth inhibition.
The efficacy of the compounds of Examples 237 and 219 were assessed together in an in vivo efficacy experiment performed on mice bearing LISN cell (mouse 3T3 fibroblasts transduced with human IGF-1R) tumors. Sixty four female nude mice bearing subcutaneous LISN cell tumors were measured for tumor size and body weight and block randomized into eight groups of eight mice with an equal average tumor volume of approximately 362 mm^3. Mice were dosed with either vehicle (20% SBE pH3.5), Example 237 or Example 219. The dosing schedules for each compound were based on previous experiments with the compounds and doses chosen to give the highest tumor growth inhibition and a dose response. Example 237 was administered at 30 and 60 mg/kg QD for 21 days and 30 mg/kg BID for 21 days while Example 219 was administered at 50 and 100 mg/kg QD for 21 days, 25 and 50 mg/kg BID for 21 days.
The tumors on mice being treated with vehicle grew with the expected exponential growth throughout the 21 day study. […] The lower dose of 30 mg/kg QD of Example 237 achieved 15% tumor growth inhibition at day 21 (note: 2 animals were euthanized prior to the last measurement). […] This recovered to 3% by the end of dosing and fully recovered after dosing was concluded. […] This recovered fully within 4 days after the completion of dosing.

COLO205 (colon) = assay: Inhibition of cell proliferation, CellTiter-Glo, COLO205; type: cell-based; conditions: Homo sapiens, COLO 205, 72 h
In short: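 Exponentially growing COLO205 cells in medium with 10% FBS were plated below 2000 cells/well at 37 °C, 5% CO2. Untreated wells served as controls.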

[4] = system: NCI-H929 (multiple myeloma); assay: Inhibition of cell proliferation, CellTiter-Glo, NCI-H929; type: cell-based; conditions: Homo sapiens, 72 h
In short: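 Cells were grown in medium with 10% FBS at 37° C, 5% CO2. Cell number was read as CellTiter-Glo luminescence (cellular ATP), with untreated wells as control.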

T1 sequence (P08069 31-1367): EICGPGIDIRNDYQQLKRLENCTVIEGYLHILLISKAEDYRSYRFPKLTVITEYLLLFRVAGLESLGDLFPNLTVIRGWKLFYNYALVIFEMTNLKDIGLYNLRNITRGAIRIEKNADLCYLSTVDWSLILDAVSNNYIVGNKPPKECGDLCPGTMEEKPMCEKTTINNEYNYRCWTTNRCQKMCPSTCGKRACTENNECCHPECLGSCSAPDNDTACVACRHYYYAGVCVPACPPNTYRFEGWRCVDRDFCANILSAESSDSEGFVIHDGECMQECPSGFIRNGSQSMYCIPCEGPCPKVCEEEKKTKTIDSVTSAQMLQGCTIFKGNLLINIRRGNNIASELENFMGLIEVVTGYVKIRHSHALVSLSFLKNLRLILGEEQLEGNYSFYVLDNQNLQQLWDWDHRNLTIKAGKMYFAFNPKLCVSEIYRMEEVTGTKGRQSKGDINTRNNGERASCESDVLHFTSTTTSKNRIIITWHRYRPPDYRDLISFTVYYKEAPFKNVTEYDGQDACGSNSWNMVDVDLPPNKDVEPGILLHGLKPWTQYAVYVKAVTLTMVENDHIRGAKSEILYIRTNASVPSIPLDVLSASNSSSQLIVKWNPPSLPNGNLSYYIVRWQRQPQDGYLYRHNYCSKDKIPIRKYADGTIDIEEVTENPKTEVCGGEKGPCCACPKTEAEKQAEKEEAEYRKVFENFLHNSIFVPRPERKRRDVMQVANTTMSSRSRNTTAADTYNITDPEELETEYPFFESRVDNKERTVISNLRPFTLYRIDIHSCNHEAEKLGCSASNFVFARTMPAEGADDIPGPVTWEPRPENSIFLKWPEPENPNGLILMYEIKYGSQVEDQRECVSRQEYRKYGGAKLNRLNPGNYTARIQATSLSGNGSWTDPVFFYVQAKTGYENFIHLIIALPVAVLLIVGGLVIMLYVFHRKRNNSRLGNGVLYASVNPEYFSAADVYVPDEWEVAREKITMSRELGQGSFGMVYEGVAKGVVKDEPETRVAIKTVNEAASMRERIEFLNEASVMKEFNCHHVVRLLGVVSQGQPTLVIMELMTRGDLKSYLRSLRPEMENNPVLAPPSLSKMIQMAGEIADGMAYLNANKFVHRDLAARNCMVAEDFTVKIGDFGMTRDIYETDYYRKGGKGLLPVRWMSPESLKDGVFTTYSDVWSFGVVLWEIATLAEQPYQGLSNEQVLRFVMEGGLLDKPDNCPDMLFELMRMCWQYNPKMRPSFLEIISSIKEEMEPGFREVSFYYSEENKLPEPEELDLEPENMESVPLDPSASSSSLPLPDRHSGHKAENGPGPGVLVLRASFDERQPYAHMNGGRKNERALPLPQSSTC

Row | SMILES | IC50 [1] | IC50 [2] | IC50 (COLO205 (colon)) | IC50 [4] | also measured
1 | COc1cc(N2CCC(N3CCN(S(C)(=O)=O)CC3)CC2)ccc1Nc1nccc(-c2c(-c3cccc(C(=O)Nc4c(F)cccc4F)c3)nc3ccccn23)n1 [Example 58, N-(2,6-difluorophenyl)-3-(3-{2-[(2-(methyloxy)-4-{4-[4-(methylsulfonyl)-1-piperazinyl]-1-piperidinyl}phenyl)amino]-4-pyrimidinyl}imidazo[1,2-a]pyridin-2-yl)benzamide] | < 100 nM | < 100 nM | 250 to 1000 nM | < 250 nM | tumor growth inhibition ([3]; LISN, 30 mg/kg QD for 21 days): 28%; tumor growth inhibition ([3]; LISN, 100 mg/kg QD for 21 days): 46%; tumor growth inhibition ([3]; LISN, 300 mg/kg QD for 21 days): 45%; effect on body weight loss ([3]; LISN, 30, 100 and 300 mg/kg QD, throughout the study): no effect
2 | CCOc1cc(N2CCC(CCS(C)(=O)=O)CC2)c(C)cc1Nc1nccc(-c2c(-c3ccc(OC)c(C(=O)Nc4c(F)cccc4F)c3)nc3ccccn23)n1 [Example 219, N-(2,6-difluorophenyl)-5-(3-{2-[(2-(ethyloxy)-5-methyl-4-{4-[2-(methylsulfonyl)ethyl]-1-piperidinyl}phenyl)amino]-4-pyrimidinyl}imidazo[1,2-a]pyridin-2-yl)-2-(methyloxy)benzamide] | < 100 nM | < 100 nM | < 250 nM | < 250 nM | tumor growth inhibition at day 21 ([3]; 25 mg/kg BID for 21 days): 16%; tumor growth inhibition at day 21 ([3]; 50 mg/kg BID for 21 days): 76%; tumor growth inhibition at day 21 ([3]; 50 mg/kg QD for 21 days): 29%; tumor growth inhibition at day 21 ([3]; 100 mg/kg QD for 21 days): 44%; time to full recovery of body weight after the completion of dosing ([3]; LISN, 25 mg/kg BID and 50 mg/kg BID): ≤ 4 days; body weight loss ([3]; LISN, 25 mg/kg BID for 21 days): 4%; body weight loss ([3]; LISN, 50 mg/kg BID for 21 days): 6%; body weight loss ([3]; LISN, 100 mg/kg and 50 mg/kg QD): no body weight loss
3 | CCc1cc(Nc2nccc(-c3c(-c4ccc(OC)c(C(=O)Nc5c(F)cccc5F)c4)nc4ccccn34)n2)c(OC)cc1N1CCC(N2CCN(S(C)(=O)=O)CC2)CC1 [Example 237, N-(2,6-difluorophenyl)-5-(3-{2-[(5-ethyl-2-(methyloxy)-4-{4-[4-(methylsulfonyl)-1-piperazinyl]-1-piperidinyl}phenyl)amino]-4-pyrimidinyl}imidazo[1,2-a]pyridin-2-yl)-2-(methyloxy)benzamide] | < 100 nM | < 100 nM | < 250 nM | < 250 nM | tumor growth inhibition at day 21 ([3]; 30 mg/kg BID for 21 days): 84%; tumor growth inhibition at day 21 ([3]; 30 mg/kg QD for 21 days, 2 animals euthanized prior to the last measurement): 15%; tumor growth inhibition at day 21 ([3]; 60 mg/kg QD for 21 days): 41%; body weight loss by the end of dosing ([3]; LISN, 30 mg/kg BID): 3%; initial body weight loss ([3]; LISN, 30 mg/kg BID): 6%; effect on body weight loss ([3]; LISN, other groups (30 and 60 mg/kg QD)): no effect
4 | COCCN1CCN(c2cc(OC)c(Nc3nccc(-c4c(-c5cccc(C(=O)Nc6c(F)cccc6F)c5)nc5ccccn45)n3)cc2C)CC1 [Example 243, N-(2,6-difluorophenyl)-3-(3-{2-[(5-methyl-2-(methyloxy)-4-{4-[2-(methyloxy)ethyl]-1-piperazinyl}phenyl)amino]-4-pyrimidinyl}imidazo[1,2-a]pyridin-2-yl)benzamide] | < 100 nM | < 100 nM | 250 to 1000 nM | < 250 nM | –
5 | CCc1cc(Nc2nccc(-c3c(-c4cccc(C(=O)Nc5c(F)cccc5F)c4)nc4ccccn34)n2)c(OC)cc1N1CCC(N2CCN(S(C)(=O)=O)CC2)CC1 [Example 244, N-(2,6-difluorophenyl)-3-(3-{2-[(5-ethyl-2-(methyloxy)-4-{4-[4-(methylsulfonyl)-1-piperazinyl]-1-piperidinyl}phenyl)amino]-4-pyrimidinyl}imidazo[1,2-a]pyridin-2-yl)benzamide] | < 100 nM | < 100 nM | 250 to 1000 nM | 250 to 1000 nM | –
6 | COc1cc(N2CCC(N3CCN(S(C)(=O)=O)CC3)CC2)c(C)cc1Nc1nccc(-c2c(-c3cccc(C(=O)Nc4c(F)cccc4F)c3)nc3ccccn23)n1 [Example 245, N-(2,6-difluorophenyl)-3-(3-{2-[(5-methyl-2-(methyloxy)-4-{4-[4-(methylsulfonyl)-1-piperazinyl]-1-piperidinyl}phenyl)amino]-4-pyrimidinyl}imidazo[1,2-a]pyridin-2-yl)benzamide] | < 100 nM | < 100 nM | 250 to 1000 nM | < 250 nM | –
7 | CCOc1cc(N2CCN(CCS(C)(=O)=O)CC2)c(C)cc1Nc1nccc(-c2c(-c3cccc(C(=O)Nc4c(F)cccc4F)c3)nc3ccccn23)n1 [Example 246, N-(2,6-difluorophenyl)-3-(3-{2-[(2-(ethyloxy)-5-methyl-4-{4-[2-(methylsulfonyl)ethyl]-1-piperazinyl}phenyl)amino]-4-pyrimidinyl}imidazo[1,2-a]pyridin-2-yl)benzamide] | < 100 nM | < 100 nM | < 250 nM | < 250 nM | –
8 | CCOc1cc(N2CCN(CCS(C)(=O)=O)CC2)c(C)cc1Nc1nccc(-c2c(-c3ccc(OCC)c(C(=O)Nc4c(F)cccc4F)c3)nc3ccccn23)n1 [Example 248, N-(2,6-difluorophenyl)-2-(ethyloxy)-5-(3-{2-[(2-(ethyloxy)-5-methyl-4-{4-[2-(methylsulfonyl)ethyl]-1-piperazinyl}phenyl)amino]-4-pyrimidinyl}imidazo[1,2-a]pyridin-2-yl)benzamide] | < 100 nM | < 100 nM | < 250 nM | < 250 nM | –
9 | COc1cc(N2CCN(CCS(C)(=O)=O)[C@@H](C(C)C)C2)ccc1Nc1nccc(-c2c(-c3ccc(OC)c(C(=O)Nc4c(F)cccc4F)c3)nc3ccccn23)n1 [Example 250, N-(2,6-difluorophenyl)-5-[3-(2-{[4-{(3S)-3-(1-methylethyl)-4-[2-(methylsulfonyl)ethyl]-1-piperazinyl}-2-(methyloxy)phenyl]amino}-4-pyrimidinyl)imidazo[1,2-a]pyridin-2-yl]-2-(methyloxy)benzamide] | < 100 nM | < 100 nM | 250 to 1000 nM | < 250 nM | –
